This series is described as follows: Pediatric ACAT/PBPK model (Type 1 SMA patients). Particulars: Type 1 SMA patients 33-39 months; optimized on observed data. Details: species or system human. The source says:
The pharmacokinetic (PK) model in adult subjects was developed using an Advanced Compartmental And Transit (ACAT)/Physiologically Based Pharmacokinetic (PBPK) model in GastroPlus™ software, Version 9.6 (SimulationPlus, Lancaster, CA, USA).
• Principle set-up of a pediatric ACAT/PBPK model in GastroPlus™ software including physico-chemical parameters, physiological parameters, and formulation factors. The ACAT model was linked to a full PBPK model in which tissue-to-plasma concentration ratios were estimated via in silico method provided by GastroPlus™ software. • Estimation of the clearance (CL) using plasma concentrations of branaplam from an open-label multi-part first-in-human proof of concept study of oral branaplam, Part 1 only. The aim of Part 1 of this study was to determine the safety and tolerability of ascending weekly doses and to estimate the maximum tolerated dose (MTD) of oral/enteral branaplam (formulation described in Example 3) in infants with Type 1 SMA. All patients had exactly 2 copies of the SMN2 gene. Patients were dosed once weekly with branaplam. The branaplam doses were escalated in subsequent cohorts until MTD was determined or when PK results confirmed that the MTD could not be reached due to a potential pharmacokinetic exposure plateau at higher doses. The starting dose referring to the free base was 6 mg/m^2 (equal to 0.3125 mg/kg). Subsequent doses were 12 mg/m^2, 24 mg/m^2, 48 mg/m^2 and 60 mg/m^2 (0.625 mg/kg, 1.25 mg/kg, 2.5 mg/kg and 3.125 mg/kg, respectively). 14 patients were enrolled in Part 1; 13 patients were exposed to branaplam. The duration of exposure ranged from 4-33 months, 7 patients remain in the study. Six of the 7 patients are receiving 60 mg/m^2, 1 patient is receiving 48 mg/m^2.
Observed plasma concentrations of branaplam in 33-39 months old Type 1 SMA patients after nominal branaplam doses of 60 mg/m^2 (3.125 mg/kg, first-in-human proof of concept study with branaplam as described above) were used to build the pediatric ACAT/PBPK by means of GastroPlus™ software. […]

The structures appear in SMILES notation.

Take `CC1(C)CC(Oc2ccc(-c3ccc(-c4cn[nH]c4)cc3O)nn2)CC(C)(C)N1` [Compound 18, 5-(1H-pyrazol-4-yl)-2-(6-((2,2,6,6-tetramethylpiperidin-4-yl)oxy)pyridazin-3-yl)phenol]: the Vc was 3.62 (Optimized value using GastroPlus ™ based on the 1/h, the k12 is recorded as 1.41 (Optimized value using GastroPlus ™ based on the 1/h and the k21 is on record as 0.144 (Optimized value using GastroPlus ™ based on the 1/h.

The values above are taken from patent US20240216369A1, “THE USE OF A SPLICING MODULATOR FOR A TREATMENT SLOWING PROGRESSION OF HUNTINGTON'S DISEASE” (Novartis AG, priority 2019, published 2024).
